Experimental data taken from patent US20250041307A1, “Uses of Bicyclic Compounds for the Treatment of Diseases” (Athira Pharma, Inc., priority 2021, published 2025).

Assays:
[1] = In vitro stability in simulated gastric and intestinal fluids; type: in vitro ADME; conditions: 37° C.; for SGF, compound remaining after 4 hours: simulated gastric fluid pH 1.2, 5 μM; for SGF + Enz, compound remaining after 4 hours: simulated gastric fluid with 3.2 mg/ml pepsin; for SGF + Enz, compound remaining after 4 hours / SIF, compound remaining after 4 hours: 5 μM; for SIF, compound remaining after 4 hours: simulated intestinal fluid pH 6.8 with 10 mg/ml pancreatin
Procedure: (§1) Bioavailability can be estimated by compound stability when exposed to conditions in the body. As an initial assessment of stability properties in a variety of conditions present in animals, exemplary compounds were tested for stability in a battery of simulated body compartments. Compounds were tested for stability in the following solutions: simulated gastric fluid (SGF: 34.2 mM NaCl, pH 1.2), simulated gastric fluid with the digestive enzyme pepsin (SGF+Enzyme: SGF with 3.2 mg/ml pepsin), simulated intestinal fluid with the mixture of enzymes in porcine pancreatin (SIF+Enzyme: 28.7 mM NaH2PO4, 105.7 mM NaCl, pH 6.8, 10 mg/ml pancreatin), rat plasma, and human plasma.
(§2) Test compounds were incubated at a final concentration of 5 μM in the above solutions at 37° C. with samples removed at the following time points: 0, 1, 2, and 4 hours. Reactions were stopped and prepared for quantification by addition of excess quench solution containing an internal standard (acetonitrile, 200 ng/mL bucetin). Test compound and internal standard in each sample was quantified by LC-MS/MS, and after internal normalization to bucetin, test compound concentration was expressed as a percentage of concentration at the 0-hour time point. Stability in the relevant test solution was then determined by the percent remaining at the 4-hour time point.

[2] = In vitro stability in rat plasma; type: in vitro ADME; conditions: 5 μM, 37° C.
Procedure: as §1, §2

[3] = In vitro stability in human plasma; type: in vitro ADME; conditions: 5 μM, 37° C.
Procedure: as §1, §2

[4] = In vivo tissue distribution; parameters: species or system Sprague-dawley rats; conditions: rat, 10 minutes post administration
Procedure: The rate of distribution to target tissues is an important feature of therapeutic molecules. Tissue distribution of exemplary compounds was performed in mixed-sex Sprague-dawley rats. Test compounds were delivered via tail vein injection (IV) and tissues were collected at Tmax (10 minutes post administration). Animals were deeply anesthetized with isoflurane and whole blood was collected from the right atrium and processed by centrifugation to produce plasma. Animals were then fully perfused with PBS administered to the left ventricle to prevent blood contamination of tissues.
Tissues were collected and homogenized, and compound content in the target tissue was quantified by LC-MS/MS. Tissue distribution rates were determined by dividing the tissue concentration of compound by the plasma concentration and multiplying by 100.

CCC(C)CN1CC2N(C(=O)c3ccc(OC(F)F)cc3)CCC(=O)N2[C@@H](C)C1=O (stereo partly drawn) [Compound 2a]
SGF, compound remaining after 4 hours [1]: ++++ (++++ indicates 100% compound remaining after 4 hours)
SGF + Enz, compound remaining after 4 hours [1]: +++ (+++ indicates 80-99% compound remaining after 4 hours)
SIF, compound remaining after 4 hours [1]: ++++ (++++ indicates 100% compound remaining after 4 hours)
Rat Plasma, compound remaining after 4 hours [2]: ++ (++ indicates 40-79% compound remaining after 4 hours)
Human Plasma, compound remaining after 4 hours [3]: ++ (++ indicates 40-79% compound remaining after 4 hours)
Tissue Distribution (% Plasma exposure at 10 min post IV dose) Brain [4]: ++ (++ indicates distribution between 5 and 39%)
Tissue Distribution (% Plasma exposure at 10 min post IV dose) Cerebellum [4]: + (+ indicates distribution between 0.05 and 5%)
Tissue Distribution (% Plasma exposure at 10 min post IV dose) Cortex [4]: ++ (++ indicates distribution between 5 and 39%)
Tissue Distribution (% Plasma exposure at 10 min post IV dose) Hippocampus [4]: ++ (++ indicates distribution between 5 and 39%)
Tissue Distribution (% Plasma exposure at 10 min post IV dose) Muscle [4]: ++++ (++++ indicates distribution above 70%)
Tissue Distribution (% Plasma exposure at 10 min post IV dose) Sciatic Nerve [4]: ++++ (++++ indicates distribution above 70%)

CCC(C)CN1CC2N(Cc3ccc(OC(F)F)cc3)CCC(=O)N2[C@@H](C)C1=O (stereo partly drawn) [Compound 6a]
SGF, compound remaining after 4 hours [1]: +++ (+++ indicates 80-99% compound remaining after 4 hours)
SGF + Enz, compound remaining after 4 hours [1]: + (+ indicates 20-39% compound remaining after 4 hours)
SIF, compound remaining after 4 hours [1]: ++ (++ indicates 40-79% compound remaining after 4 hours)
Rat Plasma, compound remaining after 4 hours [2]: +++ (+++ indicates 80-99% compound remaining after 4 hours)
Human Plasma, compound remaining after 4 hours [3]: ++ (++ indicates 40-79% compound remaining after 4 hours)
Tissue Distribution (% Plasma exposure at 10 min post IV dose) Brain [4]: ++ (++ indicates distribution between 5 and 39%)
Tissue Distribution (% Plasma exposure at 10 min post IV dose) Cerebellum [4]: ++ (++ indicates distribution between 5 and 39%)
Tissue Distribution (% Plasma exposure at 10 min post IV dose) Cortex [4]: ++ (++ indicates distribution between 5 and 39%)
Tissue Distribution (% Plasma exposure at 10 min post IV dose) Hippocampus [4]: ++ (++ indicates distribution between 5 and 39%)
Tissue Distribution (% Plasma exposure at 10 min post IV dose) Muscle [4]: ++++ (++++ indicates distribution above 70%)
Tissue Distribution (% Plasma exposure at 10 min post IV dose) Sciatic Nerve [4]: ++++ (++++ indicates distribution above 70%)

CCC(C)CN1CC2N(Cc3ccc(O)nc3)CCC(=O)N2[C@@H](C)C1=O (stereo partly drawn) [Compound 7a]
SGF, compound remaining after 4 hours [1]: ++++ (++++ indicates 100% compound remaining after 4 hours)
SGF + Enz, compound remaining after 4 hours [1]: +++ (+++ indicates 80-99% compound remaining after 4 hours)
SIF, compound remaining after 4 hours [1]: ++ (++ indicates 40-79% compound remaining after 4 hours)
Tissue Distribution (% Plasma exposure at 10 min post IV dose) Brain [4]: + (+ indicates distribution between 0.05 and 5%)
Tissue Distribution (% Plasma exposure at 10 min post IV dose) Cerebellum [4]: + (+ indicates distribution between 0.05 and 5%)
Tissue Distribution (% Plasma exposure at 10 min post IV dose) Cortex [4]: + (+ indicates distribution between 0.05 and 5%)
Tissue Distribution (% Plasma exposure at 10 min post IV dose) Hippocampus [4]: + (+ indicates distribution between 0.05 and 5%)
Tissue Distribution (% Plasma exposure at 10 min post IV dose) Muscle [4]: ++ (++ indicates distribution between 5 and 39%)
Tissue Distribution (% Plasma exposure at 10 min post IV dose) Sciatic Nerve [4]: ++++ (++++ indicates distribution above 70%)

CCC(C)CN1CC2N(C(=O)c3ccc(O)cc3)CCC(=O)N2[C@@H](C)C1=O (stereo partly drawn) [Compound 8a]
SGF, compound remaining after 4 hours [1]: ++++ (++++ indicates 100% compound remaining after 4 hours)
SGF + Enz, compound remaining after 4 hours [1]: +++ (+++ indicates 80-99% compound remaining after 4 hours)
SIF, compound remaining after 4 hours [1]: +++ (+++ indicates 80-99% compound remaining after 4 hours)
Rat Plasma, compound remaining after 4 hours [2]: ++++ (++++ indicates 100% compound remaining after 4 hours)
Human Plasma, compound remaining after 4 hours [3]: ++ (++ indicates 40-79% compound remaining after 4 hours)

CCC(C)CN1CC2N(C(=O)c3ccc(F)cc3)CCC(=O)N2C(C)C1=O (stereo not drawn) [Compound 11, 1-(4-fluorobenzoyl)-6-methyl-8-(2-methylbutyl)hexahydro-4H-pyrazino[1,2-a]pyrimidine-4,7(6H)-dione]
SGF, compound remaining after 4 hours [1]: +++ (+++ indicates 80-99% compound remaining after 4 hours)
SGF + Enz, compound remaining after 4 hours [1]: +++ (+++ indicates 80-99% compound remaining after 4 hours)
SIF, compound remaining after 4 hours [1]: ++++ (++++ indicates 100% compound remaining after 4 hours)
Rat Plasma, compound remaining after 4 hours [2]: ++++ (++++ indicates 100% compound remaining after 4 hours)
Human Plasma, compound remaining after 4 hours [3]: +++ (+++ indicates 80-99% compound remaining after 4 hours)
Tissue Distribution (% Plasma exposure at 10 min post IV dose) Brain [4]: ++ (++ indicates distribution between 5 and 39%)
Tissue Distribution (% Plasma exposure at 10 min post IV dose) Cerebellum [4]: + (+ indicates distribution between 0.05 and 5%)
Tissue Distribution (% Plasma exposure at 10 min post IV dose) Cortex [4]: + (+ indicates distribution between 0.05 and 5%)
Tissue Distribution (% Plasma exposure at 10 min post IV dose) Hippocampus [4]: + (+ indicates distribution between 0.05 and 5%)
Tissue Distribution (% Plasma exposure at 10 min post IV dose) Sciatic Nerve [4]: ++ (++ indicates distribution between 5 and 39%)

CCC(C)CN1CC2N(C(=O)c3ccc(C(F)(F)F)c(Cl)c3)CCC(=O)N2C(C)C1=O (stereo not drawn) [Compound 12, 1-(3-chloro-4-(trifluoromethyl)benzoyl)-6-methyl-8-(2-methylbutyl)hexahydro-4H-pyrazino[1,2-a]pyrimidine-4,7(6H)-dione]
SGF, compound remaining after 4 hours [1]: +++ (+++ indicates 80-99% compound remaining after 4 hours)
SGF + Enz, compound remaining after 4 hours [1]: +++ (+++ indicates 80-99% compound remaining after 4 hours)
SIF, compound remaining after 4 hours [1]: ++ (++ indicates 40-79% compound remaining after 4 hours)
Rat Plasma, compound remaining after 4 hours [2]: ++++ (++++ indicates 100% compound remaining after 4 hours)
Human Plasma, compound remaining after 4 hours [3]: +++ (+++ indicates 80-99% compound remaining after 4 hours)
Tissue Distribution (% Plasma exposure at 10 min post IV dose) Brain [4]: ++ (++ indicates distribution between 5 and 39%)
Tissue Distribution (% Plasma exposure at 10 min post IV dose) Cerebellum [4]: ++ (++ indicates distribution between 5 and 39%)
Tissue Distribution (% Plasma exposure at 10 min post IV dose) Cortex [4]: ++ (++ indicates distribution between 5 and 39%)
Tissue Distribution (% Plasma exposure at 10 min post IV dose) Hippocampus [4]: ++ (++ indicates distribution between 5 and 39%)
Tissue Distribution (% Plasma exposure at 10 min post IV dose) Sciatic Nerve [4]: +++ (+++ indicates distribution between 40 and 69%)

CCCCN1CC2N(C(=O)c3ccc(OC(F)F)cc3)CCC(=O)N2C(C)C1=O (stereo not drawn) [Compound 17]
SGF, compound remaining after 4 hours [1]: +++ (+++ indicates 80-99% compound remaining after 4 hours)
SGF + Enz, compound remaining after 4 hours [1]: +++ (+++ indicates 80-99% compound remaining after 4 hours)
SIF, compound remaining after 4 hours [1]: +++ (+++ indicates 80-99% compound remaining after 4 hours)
Rat Plasma, compound remaining after 4 hours [2]: ++ (++ indicates 40-79% compound remaining after 4 hours)
Human Plasma, compound remaining after 4 hours [3]: +++ (+++ indicates 80-99% compound remaining after 4 hours)

CC1C(=O)N(CCC2CCCC2)CC2N(C(=O)c3ccc(C(F)(F)F)cc3)CCC(=O)N12 (stereo not drawn) [Compound 19]
SGF, compound remaining after 4 hours [1]: +++ (+++ indicates 80-99% compound remaining after 4 hours)
SGF + Enz, compound remaining after 4 hours [1]: ++ (++ indicates 40-79% compound remaining after 4 hours)
SIF, compound remaining after 4 hours [1]: + (+ indicates 20-39% compound remaining after 4 hours)
Rat Plasma, compound remaining after 4 hours [2]: +++ (+++ indicates 80-99% compound remaining after 4 hours)
Human Plasma, compound remaining after 4 hours [3]: +++ (+++ indicates 80-99% compound remaining after 4 hours)
